Test results from patent US4464385A, “Treatment of diabetic complications with hydantoins” (Alcon Laboratories, Inc., priority 1982, dated 1984).

How the values were obtained:
[1] = system: cataracts in rats; experiment: Prevention or retardation of cataracts in galactose-fed rats; assay type: in vivo, rat; conditions: for suppression of the formation of nuclear cataracts: 30 days; for % of Total Eyes, + (vacuole) / % of Total Eyes, - (Normal) / % of Total Eyes, N (nuclear cataract) / % of Total Eyes, S (snowflake) / Number of Eyes Observed, + (vacuole) / Number of Eyes Observed, - (Normal) / Number of Eyes Observed, N (nuclear cataract) / Number of Eyes Observed, S (snowflake) / Number of Eyes Observed, ±: 30% galactose diet, A,C,E 0.0025%, B,D 0.01%
Procedure, shortened: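 Rats given test compound mixed into diet (by % of total feed weight; 0.01% designed to supply 20 mg/kg/day) ad libitum for thirty days after a two-day chow acclimatization, twelve animals per treatment. Eyes examined by handheld ophthalmoscope and/or penlight and each eye graded.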

[2] = system: aldose reductase; experiment: Aldose reductase inhibition / potency (general statement)

## C[S+]([O-])c1ccc2c(c1)C1(CCO2)NC(=O)NC1=O (centres unmarked) [D, spiro-(6-methylsulfinylchroman-4,4'-imidazolidine)-2',5'-dione]
[1]; 0.0025% in diet
  suppression of the formation of nuclear cataracts: greater than 80%
[1]; 0.01% in diet
  time to vacuole formation, versus galactose control: different (p<0.05) from control
  suppression of the formation of nuclear cataracts: greater than 80%
[1]; Study Day 2
  % of Total Eyes, + (vacuole): 0%
  % of Total Eyes, - (Normal): 100.0%
  % of Total Eyes, N (nuclear cataract): 0%
  % of Total Eyes, S (snowflake): 0%
  Number of Eyes Observed, + (vacuole): 0 eyes
  Number of Eyes Observed, - (Normal): 24 eyes
  Number of Eyes Observed, N (nuclear cataract): 0 eyes
  Number of Eyes Observed, S (snowflake): 0 eyes
  Number of Eyes Observed, ±: 0 eyes
[1]; Study Day 3
  % of Total Eyes, + (vacuole): 0%
  % of Total Eyes, - (Normal): 91.7%
  % of Total Eyes, N (nuclear cataract): 0%
  % of Total Eyes, S (snowflake): 0%
  Number of Eyes Observed, + (vacuole): 0 eyes
  Number of Eyes Observed, - (Normal): 22 eyes
  Number of Eyes Observed, N (nuclear cataract): 0 eyes
  Number of Eyes Observed, S (snowflake): 0 eyes
  Number of Eyes Observed, ±: 2 eyes
[1]; Study Day 4
  % of Total Eyes, + (vacuole): 16.7%
  % of Total Eyes, - (Normal): 75.0%
  % of Total Eyes, N (nuclear cataract): 0%
  % of Total Eyes, S (snowflake): 0%
  Number of Eyes Observed, + (vacuole): 4 eyes
  Number of Eyes Observed, - (Normal): 18 eyes
  Number of Eyes Observed, N (nuclear cataract): 0 eyes
  Number of Eyes Observed, S (snowflake): 0 eyes
  Number of Eyes Observed, ±: 2 eyes
[1]; Study Day 5
  % of Total Eyes, + (vacuole): 33.3%
  % of Total Eyes, - (Normal): 33.3%
  % of Total Eyes, N (nuclear cataract): 0%
  % of Total Eyes, S (snowflake): 0%
  Number of Eyes Observed, + (vacuole): 8 eyes
  Number of Eyes Observed, - (Normal): 8 eyes
  Number of Eyes Observed, N (nuclear cataract): 0 eyes
  Number of Eyes Observed, S (snowflake): 0 eyes
  Number of Eyes Observed, ±: 8 eyes
[1]; Study Day 6
  % of Total Eyes, + (vacuole): 41.6%
  % of Total Eyes, - (Normal): 25.0%
  % of Total Eyes, N (nuclear cataract): 0%
  % of Total Eyes, S (snowflake): 0%
  Number of Eyes Observed, + (vacuole): 10 eyes
  Number of Eyes Observed, - (Normal): 6 eyes
  Number of Eyes Observed, N (nuclear cataract): 0 eyes
  Number of Eyes Observed, S (snowflake): 0 eyes
  Number of Eyes Observed, ±: 8 eyes
[1]; Study Day 8
  % of Total Eyes, + (vacuole): 50.0%
  % of Total Eyes, - (Normal): 16.7%
  % of Total Eyes, N (nuclear cataract): 0%
  % of Total Eyes, S (snowflake): 8.3%
  Number of Eyes Observed, + (vacuole): 12 eyes
  Number of Eyes Observed, - (Normal): 4 eyes
  Number of Eyes Observed, N (nuclear cataract): 0 eyes
  Number of Eyes Observed, S (snowflake): 2 eyes
  Number of Eyes Observed, ±: 6 eyes
[1]; Study Day 10
  % of Total Eyes, + (vacuole): 58.4%
  % of Total Eyes, - (Normal): 8.3%
  % of Total Eyes, N (nuclear cataract): 0%
  % of Total Eyes, S (snowflake): 16.7%
  Number of Eyes Observed, + (vacuole): 14 eyes
  Number of Eyes Observed, - (Normal): 2 eyes
  Number of Eyes Observed, N (nuclear cataract): 0 eyes
  Number of Eyes Observed, S (snowflake): 4 eyes
  Number of Eyes Observed, ±: 4 eyes
[1]; Study Day 12
  % of Total Eyes, + (vacuole): 62.5%
  % of Total Eyes, - (Normal): 0%
  % of Total Eyes, N (nuclear cataract): 0%
  % of Total Eyes, S (snowflake): 20.8%
  Number of Eyes Observed, + (vacuole): 15 eyes
  Number of Eyes Observed, - (Normal): 0 eyes
  Number of Eyes Observed, N (nuclear cataract): 0 eyes
  Number of Eyes Observed, S (snowflake): 5 eyes
  Number of Eyes Observed, ±: 4 eyes
[1]; Study Day 14
  % of Total Eyes, + (vacuole): 62.5%
  % of Total Eyes, - (Normal): 0%
  % of Total Eyes, N (nuclear cataract): 0%
  % of Total Eyes, S (snowflake): 29.2%
  Number of Eyes Observed, + (vacuole): 15 eyes
  Number of Eyes Observed, - (Normal): 0 eyes
  Number of Eyes Observed, N (nuclear cataract): 0 eyes
  Number of Eyes Observed, S (snowflake): 7 eyes
  Number of Eyes Observed, ±: 2 eyes
[1]; Study Day 16
  % of Total Eyes, + (vacuole): 45.8%
  % of Total Eyes, - (Normal): 0%
  % of Total Eyes, N (nuclear cataract): 0%
  % of Total Eyes, S (snowflake): 37.5%
  Number of Eyes Observed, + (vacuole): 13 eyes
  Number of Eyes Observed, - (Normal): 0 eyes
  Number of Eyes Observed, N (nuclear cataract): 0 eyes
  Number of Eyes Observed, S (snowflake): 9 eyes
  Number of Eyes Observed, ±: 2 eyes
[1]; Study Day 18
  % of Total Eyes, + (vacuole): 54.2%
  % of Total Eyes, - (Normal): 0%
  % of Total Eyes, N (nuclear cataract): 0%
  % of Total Eyes, S (snowflake): 37.5%
  Number of Eyes Observed, + (vacuole): 13 eyes
  Number of Eyes Observed, - (Normal): 0 eyes
  Number of Eyes Observed, N (nuclear cataract): 0 eyes
  Number of Eyes Observed, S (snowflake): 9 eyes
  Number of Eyes Observed, ±: 2 eyes
[1]; Study Day 20
  % of Total Eyes, + (vacuole): 29.2%
  % of Total Eyes, - (Normal): 0%
  % of Total Eyes, N (nuclear cataract): 4.2%
  % of Total Eyes, S (snowflake): 58.4%
  Number of Eyes Observed, + (vacuole): 7 eyes
  Number of Eyes Observed, - (Normal): 0 eyes
  Number of Eyes Observed, N (nuclear cataract): 1 eyes
  Number of Eyes Observed, S (snowflake): 14 eyes
  Number of Eyes Observed, ±: 2 eyes
[1]; Study Day 22
  % of Total Eyes, + (vacuole): 20.8%
  % of Total Eyes, - (Normal): 0%
  % of Total Eyes, N (nuclear cataract): 8.3%
  % of Total Eyes, S (snowflake): 70.8%
  Number of Eyes Observed, + (vacuole): 5 eyes
  Number of Eyes Observed, - (Normal): 0 eyes
  Number of Eyes Observed, N (nuclear cataract): 2 eyes
  Number of Eyes Observed, S (snowflake): 17 eyes
  Number of Eyes Observed, ±: 0 eyes
[1]; Study Day 24
  % of Total Eyes, + (vacuole): 20.8%
  % of Total Eyes, - (Normal): 0%
  % of Total Eyes, N (nuclear cataract): 8.3%
  % of Total Eyes, S (snowflake): 70.8%
  Number of Eyes Observed, + (vacuole): 5 eyes
  Number of Eyes Observed, - (Normal): 0 eyes
  Number of Eyes Observed, N (nuclear cataract): 2 eyes
  Number of Eyes Observed, S (snowflake): 17 eyes
  Number of Eyes Observed, ±: 0 eyes
[1]; Study Day 26
  % of Total Eyes, + (vacuole): 16.7%
  % of Total Eyes, - (Normal): 0%
  % of Total Eyes, N (nuclear cataract): 8.3%
  % of Total Eyes, S (snowflake): 75.0%
  Number of Eyes Observed, + (vacuole): 4 eyes
  Number of Eyes Observed, - (Normal): 0 eyes
  Number of Eyes Observed, N (nuclear cataract): 2 eyes
  Number of Eyes Observed, S (snowflake): 18 eyes
  Number of Eyes Observed, ±: 0 eyes
[1]; Study Day 28
  % of Total Eyes, + (vacuole): 16.7%
  % of Total Eyes, - (Normal): 0%
  % of Total Eyes, N (nuclear cataract): 16.7%
  % of Total Eyes, S (snowflake): 66.7%
  Number of Eyes Observed, + (vacuole): 4 eyes
  Number of Eyes Observed, - (Normal): 0 eyes
  Number of Eyes Observed, N (nuclear cataract): 4 eyes
  Number of Eyes Observed, S (snowflake): 16 eyes
  Number of Eyes Observed, ±: 0 eyes
[1]; Study Day 30
  % of Total Eyes, + (vacuole): 4.2%
  % of Total Eyes, - (Normal): 0%
  % of Total Eyes, N (nuclear cataract): 16.7%
  % of Total Eyes, S (snowflake): 79.2%
  Number of Eyes Observed, + (vacuole): 1 eyes
  Number of Eyes Observed, - (Normal): 0 eyes
  Number of Eyes Observed, N (nuclear cataract): 4 eyes
  Number of Eyes Observed, S (snowflake): 19 eyes
  Number of Eyes Observed, ±: 0 eyes
[1]; methylthio 0.0025%, sulfinyl 0.01% in diet
  time to vacuole formation, 0.0025% methylthio versus 0.01% sulfinyl: not different from each other
[2]
  activity relative to the methylthio derivative: lacked the activity of the methylthio derivative
